Source: patent publication US10759781B2, “Substituted guanidine derivatives” (UBE INDUSTRIES, LTD., priority 2015, dated 2020)

Experiments:
[1] = target: T1, Rat Plasma VAP-1 (Rattus norvegicus, UniProt O08590); test: (Ex vivo) rat plasma VAP-1 inhibition test after oral administration of the compound; format: in vivo; conditions: 3 hours after oral administration, SD male rats, read-out: inhibition ratio (plasma VAP-1, ex vivo)
T1 construct: from tissue; host or cells: plasma of SD male rats (7-12 weeks old) after oral dosing
T1 sequence (O08590 28-763 limits assumed): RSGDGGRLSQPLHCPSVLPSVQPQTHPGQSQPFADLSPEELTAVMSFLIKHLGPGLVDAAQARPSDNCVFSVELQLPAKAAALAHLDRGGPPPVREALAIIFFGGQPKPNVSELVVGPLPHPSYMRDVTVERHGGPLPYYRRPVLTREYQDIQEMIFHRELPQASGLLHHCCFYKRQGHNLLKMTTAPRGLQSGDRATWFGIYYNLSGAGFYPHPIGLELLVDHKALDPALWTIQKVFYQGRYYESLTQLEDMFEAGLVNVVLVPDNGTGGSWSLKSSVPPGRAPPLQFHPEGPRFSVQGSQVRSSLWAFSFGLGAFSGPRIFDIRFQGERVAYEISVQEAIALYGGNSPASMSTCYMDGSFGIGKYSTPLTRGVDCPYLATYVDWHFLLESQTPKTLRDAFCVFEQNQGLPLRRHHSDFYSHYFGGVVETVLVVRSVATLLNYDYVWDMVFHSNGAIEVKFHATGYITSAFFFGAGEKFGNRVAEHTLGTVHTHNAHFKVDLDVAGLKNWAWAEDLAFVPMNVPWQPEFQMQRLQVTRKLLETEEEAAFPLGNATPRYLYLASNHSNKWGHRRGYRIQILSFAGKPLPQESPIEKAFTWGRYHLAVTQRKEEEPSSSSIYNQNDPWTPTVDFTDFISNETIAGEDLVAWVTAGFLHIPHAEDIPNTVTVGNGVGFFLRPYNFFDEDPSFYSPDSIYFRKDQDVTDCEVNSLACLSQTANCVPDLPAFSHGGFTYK
Summary of the method: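 Male SD rats, 7–12 weeks, non-fasted, dosed orally at 0.3–10 mg/kg; jugular blood taken predose and 3, 8 and 24 h after dosing. Plasma incubated with 2.5 μM 14C-benzylamine for 3 h at 37 °C; extracted product counted by scintillation. Inhibition expressed relative to each animal's predose plasma activity.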

[2] = test system: Human normal glomerular microvascular endothelial cells; format: cell-based; conditions: 2 days, 100 nM
Protocol: The Cytotoxicity Inhibition Test in Human Normal Glomerular Microvascular Endothelial Cells
(§1) Human normal glomerular microvascular endothelial cells were plated at 6000 cells/well in a collagen-coated 96-well culture plate. After one day of culture, the medium at each well was completely removed by aspiration and replaced with 50 μL of the compound solution diluted with the basal medium. The basal medium containing 0.1% DMSO was added to control wells. Following, the plate was incubated in CO2 incubator for 30 minutes. Fifty microliter of 2 mM methylamine diluted with the basal medium was added (final concentration 1 mM) to each negative control well (0% inhibition) as well as the compound-containing well, and 50 μL of the basal medium was added to each positive control well (100% inhibition). The plate was incubated in CO2 incubator for 2 days. Ten microliter of CCK-8 was added to each well and the mixtures were incubated in a plate incubator at 37° C. for approximately 2 hours after stirring with a plate shaker. The absorbance of the mixtures at 450 nm was measured with a multiplate reader. The cytotoxicity inhibition ratio of the compound was calculated from the following equation. Inhibition ratio={[Average absorbance of the compound-containing wells]−[Average absorbance of negative control wells]}/{[Average absorbance of positive control wells]−[Average absorbance of negative control wells]}×100

[3] = test system: Human normal hepatic sinusoid-like microvascular endothelial cells; format: cell-based; conditions: 2 days, 300 nM
Protocol: The Cytotoxicity Inhibition Test in Human Normal Hepatic Sinusoid-Like Microvascular Endothelial Cells
as §1, with “hepatic sinusoid-like” for “glomerular”

CON=C1CN(c2ncc(-c3cccc(COC(=O)NC(=N)N)c3F)cc2F)C1 [Example 36, 2-fluoro-3-{5-fluoro-6-[3-(methoxyimino)azetidin-1-yl]pyridin-3-yl}benzyl carbamimidoylcarbamate]
≥ 50%: inhibition in vivo at 0.3 mg/kg [1] | cytotoxicity inhibition ratio [2] | cytotoxicity inhibition ratio [3]

[2H]C([2H])([2H])ON=C1CN(c2ncc(-c3cccc(COC(=O)NC(=N)N)c3F)cc2F)C1 [Example 37, 2-fluoro-3-(5-fluoro-6-{3-[(methoxy-d3)imino]azetidin-1-yl}pyridin-3-yl)benzyl carbamimidoylcarbamate]
≥ 50%: inhibition in vivo at 0.3 mg/kg [1] | cytotoxicity inhibition ratio [2] | cytotoxicity inhibition ratio [3]

N=C(N)NC(=O)OCc1cccc(-c2cnc(N3CC(=NOCCC(O)CO)C3)c(F)c2)c1F (stereo not drawn) [Example 95, 3-(6-{3-[(3,4-Dihydroxybutoxy)imino]azetidin-1-yl}-5-fluoropyridin-3-yl)-2-fluorobenzyl carbamimidoylcarbamate]
≥ 50%: inhibition in vivo at 0.3 mg/kg [1] | cytotoxicity inhibition ratio [2] | cytotoxicity inhibition ratio [3]

N=C(N)NC(=O)OCc1cccc(-c2cnc(N3CC(=NOCC(CO)CO)C3)c(F)c2)c1F [Example 96, 2-Fluoro-3-{5-fluoro-6-[3-{[3-hydroxy-2-(hydroxymethyl)propoxy]imino}azetidin-1-yl]pyridin-3-yl}benzyl carbamimidoylcarbamate]
≥ 50%: inhibition in vivo at 0.3 mg/kg [1] | cytotoxicity inhibition ratio [2] | cytotoxicity inhibition ratio [3]

N=C(N)NC(=O)OCc1cccc(-c2cnc(N3CC(=NOCC(F)CO)C3)nc2)c1F (stereo not drawn) [Example 102, 2-Fluoro-3-(2-{3-[(2-fluoro-3-hydroxypropoxy)imino]azetidin-1-yl}pyrimidin-5-yl)benzyl carbamimidoylcarbamate]
≥ 50%: inhibition in vivo at 0.3 mg/kg [1] | cytotoxicity inhibition ratio [2] | cytotoxicity inhibition ratio [3]
